Experimental data reported in the SangsterLogP compilation.

assay: not given; settings: not given

logP	SMILES
2.65	CCCc1nc(NCC(C)C)nc(N2CCOCC2)n1
2.78	CCCCNc1nc(CCC)nc(N2CCOCC2)n1
1.94	CCCc1nc(NCN(C)C)nc(N2CCOCC2)n1
2.43	CCCc1nc(N)nc(N2CCCCC2)n1
2.02	CCCc1nc(NC)nc(N2CCOCC2)n1
2.47	C=CCCNc1nc(CCC)nc(N2CCOCC2)n1

assay: method code SF-HPLC, from DOI: 10.1016/s0223-5234(98)80011-1; settings: pH 7.4

SMILES	logD
O=S1CCN(c2nc(CC3CC3)nc(NC3CC3)n2)CC1	1.56
CCCc1nc(NC(=O)c2ccccc2)nc(N2CCOCC2)n1	2.33
OC1CN(c2nc(CC3CC3)nc(NC3CC3)n2)C1	1.71
OCCN(CCO)c1nc(CC2CC2)nc(NC2CC2)n1	1.82
C1CN(c2nc(CC3CC3)nc(NC3CC3)n2)CCO1	2.33
CCCCc1nc(NC2CC2)nc(N2CC3CCC(C2)O3)n1	3.02
CCCCc1nc(NC2CC2)nc(N(CCO)CCO)n1	1.76
CCCCc1nc(NC2CC2)nc(N2CC(O)C2)n1	1.61
Cc1nc(NC2CC2)nc(N2CC3CCC(C2)O3)n1	1.84
C1CC1Cc1nc(NC2CC2)nc(N2CC3CCC(C2)O3)n1	3.07
O=S1(=O)CCN(c2nc(CC3CC3)nc(NC3CC3)n2)CC1	1.76
C1CC(Cc2nc(NC3CC3)nc(N3CCOCC3)n2)C1	3.14
COC1CN(c2nc(CC3CC3)nc(NC3CC3)n2)C1	2.37
CC(C)Cc1nc(NC2CC2)nc(N2CC3CCC(C2)O3)n1	3.34
C1CCC(Cc2nc(NC3CC3)nc(N3CCOCC3)n2)C1	3.6

Results, then the compound that gave them:

logD	SMILES
1.55	CCCc1nc(N)nc(N2CCOCC2)n1
2.23	CCCc1nc(NCC)nc(N2CCOCC2)n1
3.34	CCCc1nc(NCC)nc(N2CCCCC2)n1
2.8	CCCCc1nc(NC2CC2)nc(N2CCOCC2)n1
0.67	CCCc1nc(NCCC(=O)N(C)C)nc(N2CCOCC2)n1
3.59	CCCc1nc(NCc2ccccc2OC)nc(N2CCOCC2)n1
1.62	CCCc1nc(NCN2CCCC2=O)nc(N2CCOCC2)n1
2.11	CCCc1nc(NC2CC2)nc(N2CCOCC2)n1
